Structures are written as SMILES. Read-outs that look alike come from different tables or passages of the source.

Data set [1] concerns isolatedly perfused rat liver. Kind of data set: Inhibition of glucose formation (from lactate and pyruvate) on the isolatedly perfused rat liver. Details: species or system Sprague-Dawley rats. The following applies: for D: ID50 (inhibition of the glucose formation from lactate and pyruvate by 50%): isolatedly perfused rat liver, concentration in the perfusate. The method, then: The values in column D show the concentrations (ID50 mmol/l) of the substances in the perfusate, which bring about on the isolatedly perfused rat liver an inhibition of the glucose formation from lactat and pyruvat by 50%.
2. Inhibition of Glucose Formation on the Isolatedly Perfused Rat Liver
Young male Sprague-Dawley rats (160-200 g) are used. The animals are kept as described under 1.
Food is withdrawn from the animals 20-22 hours before the operation. Water uptake occurs ad libitum. Operation and perfusion of the liver are effected according to the technique of R. Scholz et al. [Eur. J. Biochem. 38 (1973) 64-72]. As perfusion liquids, Krebs-Henseleit biocarbonate buffer (pH 7.4) is used which is saturated with an oxygen/carbon dioxide mixture (95/5) and contains 1.6 mmoles/liter L-lactates and 0.2 mmole/liter pyruvate. The perfusion liquid is pumped into the liver via a cannula introduced into the portal vein. The perfusion liquid emerging is collected via a cannula introduced into the vena cava and then taken past an oxygen electrode. The liver is perfused for about 2 hours. The test compounds are infused from the 32nd to 80th minute of the perfusion, with increasing concentrations (0.01, 0.03, 0.10 mmol/l).
Samples of the emerged perfusion liquid are collected at one-minute intervals and analysed for glucose, lactate and pyruvate according to enzymatic standard methods. The oxygen content is continuously determined by means of a platinum electrode. The check constants (ID50) stated in Table I refer to the state which exists before and after addition of the compounds; the changes caused alone through lactate and pyruvate were set at 100%.

For data set [2], the system named is fasting, metabolically healthy rats. Kind of data set: Blood glucose determination after single oral application (fasting, metabolically healthy rats). It counts as in vivo, Sprague-Dawley rats. The conditions noted are these: for ED50: read-out: B: ED50 (dose which effects a lowering of the blood glucose concentration by at least 15% in 50% of the animals); for A: Change of the blood glucose concentration (maximal, with reference to control animals): single oral administration 0.6 to 1.0 mmole/kg, maximal change within 24 hours. The protocol:
In Table I there are reproduced investigations of the influence of representatives of the compounds according to the invention on the blood glucose concentration of fasting, metabolically healthy rats after single oral administration of substance of 0.6 to 1.0 mmole/kg body weight within 24 hours. Column A states in each case the maximal lowering in % with reference to the control group within 24 hours after application of the compounds.
1. Blood Glucose Determination After Single Oral Application
Young male Sprague-Dawley rats (body weight 160-200 g) are used. The animals are kept in makralon cages with up to 5 animals per cage [room-temperature 23° C., humidity of the atmosphere 55%, fixed day/night rhythm (12/12 h), rat standard diet Altromin^R ].
Food is withdrawn from the animals 20-22 hours before the taking of the 1st blood sample. Water uptake occurs ad libitum. Blood samples are taken at intervals of 0, 2, 6 and 24 hours through puncture from the postorbital plexus.
After deproteinisation with perchloric acid, the blood glucose determination is effected by means of the enzymatic HK/G-6-POH method according to R. Richterich [Klinische Chemie, Theorie und Praxis, 3rd Edition, 1971, S. Karger Verlag, Zuerich-Basle, page 275].
For comparison, in each case a control group treated with pure solvent is also investigated.

The nature of the next data set: in vivo. The following applies: mouse. The protocol:
3. Determination of the toxicity
The toxicity investigations were carried out on female NMRI mice (body weight 22-26 g). The animals (5 animals per dose) receive, 18 hours before the treatment, the food (Altromin®) reduced to 50 g/50 animals and water ad libitum. Various doses of the substances are administered per os or intraperitoneal (volume 20 ml/kg). The duration of observation is 7 days. The DL50, i.e. the dose at which 50% of the animals die, is determined graphically from the dose effect curve.

Setting [3] is: rat, single oral administration, with reference to control group.
[4] abbreviates: ip, i.p., read-out: C: LD50 (i.p.).

As to `CCCCNC(=N)NC(=N)N` [Serial No. 1, buformin, reference compound], in data set [1], the “inhibition of the glucose formation from lactate and pyruvate in the liver (in words)” value is on record as “no inhibition”; the “D: ID50 (inhibition of the glucose formation from lactate and pyruvate by 50%)” value is “ineffective”. The ED50 in data set [2] (Rattus norvegicus, po) was determined as 227 mg/kg. Besides, the “A: Change of the blood glucose concentration (maximal, with reference to control animals)” value (from here on “A: Change”) in data set [2] (rat) is -20%.
With `[H]/N=C(/N)N/C(=N/[H])NCCc1ccccc1` [Serial No. 2, phenformin], in data set [1], the “inhibition of the glucose formation from lactate and pyruvate in the liver (in words)” value was “no inhibition”; the “D: ID50 (inhibition of the glucose formation from lactate and pyruvate by 50%)” value is recorded as “ineffective”. In addition, the “A: Change” value in data set [2] (rat) is -2%.
Consider `CN(C(=O)c1ccccc1)c1ccccc1CCCC(=O)O` [Serial No. 3, 4-[2-(N-methylbenzamido)-phenyl]-butyric acid], for which the “A: Change” value in data set [2] (rat) is -27%. The ED50 in data set [2] (setting [3]) is 205 mg/kg.
Take `CN(C(=O)c1ccc(Cl)cc1)c1ccccc1CCC(=O)O` [Serial No. 4, 3-[2-(N-methyl-4-chlorobenzamido)-phenyl]-propionic acid]: the “A: Change” value in data set [2] (rat) is -16%. In addition, the ED50 in data set [2] (setting [3]) was determined as 426 mg/kg.
As a reminder, the LD50 is the dose expected to kill half of the subjects tested. Take `CN(C(=O)c1ccc(Cl)c(Cl)c1)c1ccccc1CCC(=O)O` [Serial No. 5, 3-[2-(N-methyl-3,4-dichlorobenzamido)-phenyl]-propionic acid]: in data set [2] (rat), the “A: Change” value is recorded as -11%. Also, the ED50 in data set [2] (setting [3]) amounted to 363 mg/kg. For the same compound, the median lethal dose (LD50) at 168 h in “in vivo” (po, per os, read-out: C: LD50) came out at 1100 mg/kg.
The matching figures for `CN(C(=O)c1ccccc1)c1ccccc1CCC(=O)O` [Serial No. 6, 3-[2-(N-methylbenzamido)-phenyl]-propionic acid]: -26%, 221 mg/kg and 970 mg/kg.
Regarding `CN(C(=O)c1ccc(Cl)c(Cl)c1)c1ccc(Cl)cc1CCC(=O)O` [Serial No. 7, 3-[5-chloro-2-(N-methyl-3,4-dichlorobenzamido)-phenyl]-propionic acid], the “A: Change” value in data set [2] (rat) is listed as -15%. Moreover, in the data set “in vivo” (po, per os, read-out: C: LD50), the LD50 at 168 h is over 1000 mg/kg.
Take `CN(C(=O)c1cccc(C(F)(F)F)c1)c1ccc(Cl)cc1CCC(=O)O` [Serial No. 8, 3-[5-chloro-2-(N-methyl-3-trifluoromethylbenzamido)-phenyl]-propionic acid]: the “A: Change” value in data set [2] (rat) was -26%. For the same compound, in data set [2] (setting [3]), the ED50 stood at 185 mg/kg. Further, the LD50 at 168 h in the data set “in vivo” (po, per os, read-out: C: LD50) was over 1000 mg/kg.
The matching figures for `CN(C(=O)c1ccc(Cl)cc1)c1ccccc1CCCC(=O)O` [Serial No. 9, 4-[2-(N-methyl-4-chlorobenzamido)-phenyl]-butyric acid]: -24%, 103 mg/kg and over 1000 mg/kg.
As for `CN(C(=O)c1ccc(Cl)c(Cl)c1)c1ccccc1CCCC(=O)O` [Serial No. 10, 4-[2-(N-methyl-3,4-dichlorobenzamido)-phenyl]-butyric acid], in data set [2] (rat), the “A: Change” value was -17%. Besides, the ED50 in data set [2] (setting [3]) came to 198 mg/kg. Besides, the LD50 at 168 h in “in vivo” (setting [4]) was 250 mg/kg.
Turning to `CN(C(=O)c1ccc(Cl)cc1Cl)c1ccccc1CCCC(=O)O` [Serial No. 11, 4-[2-(N-methyl-2,4-dichlorobenzamido)-phenyl]-butyric acid], the “A: Change” value in data set [2] (rat) is recorded as -17%. Besides, in data set [2] (setting [3]), the ED50 came out at 245 mg/kg. Also, the LD50 at 168 h in the data set “in vivo” (po, per os, read-out: C: LD50) is over 1000 mg/kg.
Take `CN(C(=O)c1cccc(C(F)(F)F)c1)c1ccccc1CCCC(=O)O` [Serial No. 12, 4-[2-(N-methyl-3-trifluoromethylbenzamido)-phenyl]-butyric acid]: the “A: Change” value in data set [2] (rat) is recorded as -20%. Besides, the ED50 in data set [2] (setting [3]) came out at 278 mg/kg. The 50% lethal dose (LD50) at 168 h in “in vivo” (setting [4]) was 150 mg/kg.
As to `COc1cccc(N(C)C(=O)c2ccc(Cl)cc2)c1CCCC(=O)O` [Serial No. 13, 4-[6-methoxy-2-(N-methyl-4-chlorobenzamido)-phenyl]-butyric acid], the “A: Change” value in data set [2] (rat) was -14%. Further, the ED50 in data set [2] (setting [3]) is over 500 mg/kg.
Take `COc1ccc(N(C)C(=O)c2ccc(Cl)c(Cl)c2)c(CCCC(=O)O)c1` [Serial No. 14, 4-[5-methoxy-2-(N-methyl-3,4-dichloro-benzamido)-phenyl]-butyric acid]: the “A: Change” value in data set [2] (rat) is given as -21%.
`CN(C(=O)c1ccc(Cl)c(Cl)c1)c1ccccc1CCCCC(=O)O` [Serial No. 15, 5-[2-(N-methyl-3,4-dichlorobenzamido)-phenyl]-valeric acid]: in data set [2] (rat), the “A: Change” value was -5%. Further, the ED50 in data set [2] (setting [3]) is over 700 mg/kg.

The record behind these values is patent publication US4322439A, “ω-[2-(N-Lower alkyl-benzamido)-phenyl]-alkanoic acids, their use, and medicaments containing them” (BYK Gulden Lomberg Chemische Fabrik GmbH, priority 1978, dated 1982).
